Results on eleven compounds are retold here after ChEMBL document CHEMBL5126521, “Analgesic Opioid Ligand Discovery Based on Nonmorphinan Scaffolds Derived from Natural Sources” (J Med Chem, 2022).

Bridge positions count the residues as written; N and C are the ends. Square brackets hold non-standard residues; d marks the D form. Peptide text beside a SMILES is read from it. ξ: configuration not given here. d1Nal = N[C@H](Cc1cccc2ccccc12)C(=O)O; d2Nal = N[C@H](Cc1ccc2ccccc2c1)C(=O)O; Dmt = Cc1cc(O)cc(C)c1C[C@H](N)C(=O)O; ξGly(octyl) = CCCCCCCCC(N)C(=O)O; Tic = O=C(O)[C@@H]1Cc2ccccc2CN1

Broadly, the Ki is the dissociation constant of the complex between target and ligand, obtained from inhibition or displacement. Usually half-life stands for the time in which the quantity being followed falls by half. The term EC50 denotes the midpoint of the concentration-response curve. A word on the Kb: it is the affinity of an antagonist, worked out from how it opposes an agonist. The term IC50 denotes the point on the concentration scale where inhibition reaches its midpoint. The Emax is the greatest response seen or fitted, relative to the assay's reference.

Data set [1] concerns the target T1, Mu-type opioid receptor (Homo sapiens, UniProt P35372). The data set can be described thus: Binding affinity to MOP (unknown origin).
The subject of data set [2] is Mus musculus. The data set can be described thus: Antinociceptive activity in Kunming mouse assessed as heat paw withdrawal measured after 10 secs administered icv. In kind it is functional. As to conditions: time 10 sec, 10 s.
The target in data set [3] is T2, Delta-type opioid receptor (Homo sapiens, UniProt P41143). The data set is described as follows: Binding affinity to DOP (unknown origin).
T2 sequence (P41143 whole entry): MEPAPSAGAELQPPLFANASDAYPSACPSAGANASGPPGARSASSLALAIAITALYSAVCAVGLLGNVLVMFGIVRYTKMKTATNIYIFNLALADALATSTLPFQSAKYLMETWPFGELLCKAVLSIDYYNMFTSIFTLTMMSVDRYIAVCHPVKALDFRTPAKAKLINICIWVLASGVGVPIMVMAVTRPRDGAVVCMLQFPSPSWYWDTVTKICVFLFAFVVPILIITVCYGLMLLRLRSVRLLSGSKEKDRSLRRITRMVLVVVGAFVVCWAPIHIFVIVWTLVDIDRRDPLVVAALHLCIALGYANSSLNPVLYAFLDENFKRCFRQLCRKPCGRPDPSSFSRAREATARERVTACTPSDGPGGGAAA
Data set [4] in a line: Stability in mouse serum assessed as half life. The format is ADME, cell-free.
A short description of data set [5]: Stability in rat brain homogenate assessed as half life. The format is ADME, tissue-based.
The subject of the next data set is Rattus norvegicus. The data set can be described thus: Antinociceptive activity in Sprague-Dawley rat assessed as tail flick response in warm water administered iv. In kind it is functional.
Data set [6] addresses T1, Mu-type opioid receptor. The data set can be described thus: Agonist activity at MOP in human SH-SY5Y cells assessed as forskolin stimulated cAMP accumulation incubated for 30 mins by Biotrak-EIA kit method. The format is functional, cell-based. Background: Cyclic AMP is a second messenger, typically raised through Gs and lowered through Gi signalling.
In data set [7] the target is T3, Kappa-type opioid receptor (Rattus norvegicus, UniProt P34975). The data set is described as follows: Displacement of [3H]-norBNI from Wistar rat brain membrane KOP. The format is cell membranes.
T3 sequence (P34975 whole entry): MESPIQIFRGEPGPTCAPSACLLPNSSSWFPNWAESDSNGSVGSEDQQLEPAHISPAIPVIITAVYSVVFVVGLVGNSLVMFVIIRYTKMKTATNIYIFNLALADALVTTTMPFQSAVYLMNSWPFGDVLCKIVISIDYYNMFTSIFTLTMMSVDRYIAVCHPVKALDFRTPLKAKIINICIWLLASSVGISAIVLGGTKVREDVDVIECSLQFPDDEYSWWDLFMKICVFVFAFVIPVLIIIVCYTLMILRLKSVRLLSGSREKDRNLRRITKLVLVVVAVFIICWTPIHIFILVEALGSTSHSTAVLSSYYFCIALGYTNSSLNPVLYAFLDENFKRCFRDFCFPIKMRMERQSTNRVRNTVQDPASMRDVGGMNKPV
The subject of data set [8] is Mus musculus. The data set can be described thus: Antinociceptive activity in Swiss albino mouse assessed tail flick response in warm water administered icv. The format is functional.
For data set [9], the target named is Delta-type opioid receptor (Mus musculus, UniProt P32300). The data set is described as follows: Displacement of [3H]DPDPE from mouse DOP stably expressed in CHO cell membrane. The format is cell membranes.
Sequence of Delta-type opioid receptor (Mus musculus, UniProt P32300) (P32300 whole entry): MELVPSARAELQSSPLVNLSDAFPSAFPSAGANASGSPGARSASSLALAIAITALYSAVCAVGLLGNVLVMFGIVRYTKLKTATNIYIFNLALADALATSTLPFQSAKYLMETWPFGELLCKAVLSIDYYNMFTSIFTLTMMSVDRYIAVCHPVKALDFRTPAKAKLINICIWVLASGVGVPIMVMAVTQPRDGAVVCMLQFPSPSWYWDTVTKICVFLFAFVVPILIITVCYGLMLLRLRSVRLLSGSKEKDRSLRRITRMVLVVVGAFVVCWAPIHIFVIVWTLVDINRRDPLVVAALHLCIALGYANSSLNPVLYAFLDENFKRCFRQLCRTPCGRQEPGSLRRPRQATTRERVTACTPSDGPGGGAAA
The target in data set [10] is Kappa-type opioid receptor (Homo sapiens, UniProt P41145). The data set can be described thus: Binding affinity to human KOP stably expressed in CHO cell membrane assessed as [35S]GTPgammaS binding. The format is cell membranes. As to conditions: filed as antagonist.
Sequence of Kappa-type opioid receptor (Homo sapiens, UniProt P41145) (P41145 whole entry): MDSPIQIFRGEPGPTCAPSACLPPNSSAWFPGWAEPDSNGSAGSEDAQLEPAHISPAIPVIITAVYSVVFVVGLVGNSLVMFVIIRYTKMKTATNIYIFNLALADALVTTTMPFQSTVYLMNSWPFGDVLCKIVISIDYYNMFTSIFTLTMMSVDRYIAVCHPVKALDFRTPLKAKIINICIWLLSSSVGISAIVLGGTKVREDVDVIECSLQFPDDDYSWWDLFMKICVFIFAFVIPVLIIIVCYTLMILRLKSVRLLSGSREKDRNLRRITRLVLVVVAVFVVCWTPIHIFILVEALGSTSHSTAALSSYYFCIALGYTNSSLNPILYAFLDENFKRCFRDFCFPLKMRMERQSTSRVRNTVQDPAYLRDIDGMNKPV
Data set [11] relates to Mus musculus. The data set is described as follows: Antinociceptive activity in po dosed C57BL/6J mouse assessed as tail withdrawal latency from warm water. In kind it is functional.
A short description of data set [12]: Degradation half life in rat brain homogenate. In kind it is ADME, tissue-based.
In data set [13] the target is T4, Delta-type opioid receptor (Rattus norvegicus, UniProt P33533). The data set can be described thus: Inhibition of Wistar rat brain membrane DOP. The format is cell membranes.
T4 sequence (P33533 whole entry): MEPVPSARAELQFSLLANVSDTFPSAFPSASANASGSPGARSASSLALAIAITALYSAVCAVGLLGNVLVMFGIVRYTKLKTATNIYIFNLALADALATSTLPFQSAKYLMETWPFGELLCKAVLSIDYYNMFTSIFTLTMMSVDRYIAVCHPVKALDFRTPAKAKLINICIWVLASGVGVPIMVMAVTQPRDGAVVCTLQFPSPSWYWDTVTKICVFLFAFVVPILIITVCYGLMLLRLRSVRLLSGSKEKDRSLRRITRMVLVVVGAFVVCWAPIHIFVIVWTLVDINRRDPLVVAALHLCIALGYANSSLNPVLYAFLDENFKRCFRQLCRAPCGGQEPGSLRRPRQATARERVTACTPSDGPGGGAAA
In data set [14] the target is T3, Kappa-type opioid receptor. The data set is described as follows: Inhibition of Wistar rat brain membrane KOP. In kind it is cell membranes.
Data set [15] addresses T1, Mu-type opioid receptor. The data set can be described thus: Agonist activity at human recombinant MOP expressed in CHO cells by calcium mobilization assay. In kind it is functional, cell-based. A general note: Calcium flux is commonly read through the fluorescence of an indicator in the cells.
For data set [16], the target named is T5, Mu-type opioid receptor (Rattus norvegicus, UniProt P33535). The data set is described as follows: Inhibition of Wistar rat brain membrane MOP. The format is cell membranes.
T5 sequence (P33535 whole entry): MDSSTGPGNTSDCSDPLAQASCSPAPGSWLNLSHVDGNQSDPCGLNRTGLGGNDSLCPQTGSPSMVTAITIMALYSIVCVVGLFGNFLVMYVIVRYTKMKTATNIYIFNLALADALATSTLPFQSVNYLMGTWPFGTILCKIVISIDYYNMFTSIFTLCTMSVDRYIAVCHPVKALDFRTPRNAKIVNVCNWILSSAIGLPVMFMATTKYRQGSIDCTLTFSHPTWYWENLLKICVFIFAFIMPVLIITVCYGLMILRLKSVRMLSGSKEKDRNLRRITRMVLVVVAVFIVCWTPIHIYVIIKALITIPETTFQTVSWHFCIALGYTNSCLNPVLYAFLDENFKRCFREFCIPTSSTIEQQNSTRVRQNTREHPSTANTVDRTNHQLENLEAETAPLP
Data set [17] concerns the target T4, Delta-type opioid receptor. The data set is described as follows: Agonist activity at recombinant rat DOP stably expressed in CHO-K1 cell membrane assessed as [35S]GTPgammaS binding. The format is functional, cell membranes. For orientation: Binding of GTPγS marks nucleotide exchange on a G protein.
Data set [18] deals with T5, Mu-type opioid receptor. The data set is described as follows: Agonist activity at recombinant rat MOP stably expressed in CHO-K1 cell membrane assessed as [35S]GTPgammaS binding. In kind it is functional, cell membranes.
The subject of data set [19] is Mus musculus. The data set can be described thus: Antinociceptive activity in po dosed mouse by tail flick assay. The format is functional.
Data set [20] in a line: Toxicity in sc dosed mouse assessed as antinociceptive activity tolerance. As to conditions: in vivo. In kind it is organism-based.
Data set [21] is described as follows: Displacement of [3H]DPDPE from guinea pig brain membrane DOP incubated for 2.5 hr by scintillation counter analysis. The format is cell membranes, Cavia porcellus.
Data set [22] concerns the target Mu-type opioid receptor (Cavia porcellus, UniProt P97266). The data set is described as follows: Displacement of [3H]DAMGO from guinea pig brain membrane MOP incubated for 1 hr by scintillation counter analysis. In kind it is cell membranes.
A short description of data set [23]: Toxicity in po dosed mouse assessed as antinociceptive activity tolerance by tail flick assay. As to conditions: in vivo. The format is organism-based.
Data set [24] relates to Mus musculus. The data set is described as follows: Antinociceptive activity in sc dosed mouse. The format is functional.
Data set [25] concerns the target Kappa-type opioid receptor (Cavia porcellus, UniProt P41144). The data set is described as follows: Displacement of [3H]U69593 from guinea pig brain membrane KOP incubated for 1 hr by scintillation counter analysis. The format is cell membranes.
The target of data set [26] is T3, Kappa-type opioid receptor. The data set is described as follows: Displacement of [3H]diprenorphine from rat KOP stably expressed in CHO cell membrane. In kind it is cell membranes.
For data set [27], the target named is T1, Mu-type opioid receptor. The data set is described as follows: Antagonist activity at human MOP stably expressed in CHO cell membrane assessed as [35S]GTPgammaS binding. In kind it is functional, cell membranes.
The target of data set [28] is T5, Mu-type opioid receptor. The data set is described as follows: Displacement of [3H]DAMGO from rat MOP stably expressed in CHO cell membrane. In kind it is cell membranes.
Data set [29] relates to Mus musculus. The data set can be described thus: Antinociceptive activity in icv dosed C57BL/6J mouse assessed as tail withdrawal latency from warm water. The format is functional.
The test system of data set [30] is Mus musculus. The data set is described as follows: Antinociceptive activity in Kunming mouse assessed as tail flick response in warm water administered iv. In kind it is functional.
Data set [31] addresses T1, Mu-type opioid receptor. The data set is described as follows: Agonist activity at MOP (unknown origin) stably expressed in HEK293 cells assessed as forskolin stimulated cAMP accumulation incubated for 30 mins by radioactivity based scintillation counter analysis. In kind it is functional, cell-based.
The test system of data set [32] is Mus musculus. The data set can be described thus: Antinociceptive activity in Kunming mouse assessed tail flick response in warm water administered icv. The format is functional.
Data set [33] has as its target T1, Mu-type opioid receptor. The data set can be described thus: Agonist activity at MOP (unknown origin) stably expressed in HEK293 cells assessed as forskolin stimulated cAMP accumulation incubated for 30 mins by radioactivity based scintillation counter analysis relative to control. The format is functional, cell-based. As to conditions: filed as agonist.
Data set [34] deals with T1, Mu-type opioid receptor. The data set can be described thus: Displacement of [3H]DAMGO from MOP (unknown origin) stably expressed in HEK293 cells by liquid scintillation counter analysis. In kind it is cell-based.
Data set [35] is described as follows: Stability in mouse brain homogenate assessed as half life. In kind it is ADME, tissue-based.
Data set [36] addresses T2, Delta-type opioid receptor. The data set can be described thus: Displacement of [3H]DPDPE from DOP (unknown origin) stably expressed in HEK293 cells by liquid scintillation counter analysis. In kind it is cell-based.

T1 sequence (P35372 whole entry): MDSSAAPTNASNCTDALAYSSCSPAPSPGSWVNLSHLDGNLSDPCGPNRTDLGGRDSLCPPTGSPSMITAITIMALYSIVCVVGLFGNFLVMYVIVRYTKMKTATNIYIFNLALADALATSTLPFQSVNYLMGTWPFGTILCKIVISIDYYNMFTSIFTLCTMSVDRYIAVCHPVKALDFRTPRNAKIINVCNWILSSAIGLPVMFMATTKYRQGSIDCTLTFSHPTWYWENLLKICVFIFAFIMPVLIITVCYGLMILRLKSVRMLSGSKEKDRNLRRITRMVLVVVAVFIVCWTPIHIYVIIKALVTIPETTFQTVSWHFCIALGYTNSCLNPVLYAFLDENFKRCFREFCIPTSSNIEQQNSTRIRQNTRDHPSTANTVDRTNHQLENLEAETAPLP
Sequence of Mu-type opioid receptor (Cavia porcellus, UniProt P97266) (P97266 whole entry): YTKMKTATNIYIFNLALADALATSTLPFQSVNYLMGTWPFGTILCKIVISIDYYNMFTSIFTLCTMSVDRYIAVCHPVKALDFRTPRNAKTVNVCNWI
Sequence of Kappa-type opioid receptor (Cavia porcellus, UniProt P41144) (P41144 whole entry): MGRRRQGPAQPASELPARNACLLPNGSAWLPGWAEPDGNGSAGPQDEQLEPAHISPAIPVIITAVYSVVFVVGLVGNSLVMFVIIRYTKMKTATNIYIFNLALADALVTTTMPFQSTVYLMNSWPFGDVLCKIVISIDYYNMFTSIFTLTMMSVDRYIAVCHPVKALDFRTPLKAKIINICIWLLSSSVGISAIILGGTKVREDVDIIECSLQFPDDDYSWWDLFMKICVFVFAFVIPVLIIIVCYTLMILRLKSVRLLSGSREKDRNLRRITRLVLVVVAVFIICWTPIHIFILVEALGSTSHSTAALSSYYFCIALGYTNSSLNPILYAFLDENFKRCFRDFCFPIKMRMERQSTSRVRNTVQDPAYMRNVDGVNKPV

`CC(C)(C)OC(=O)[C@H](Cc1ccccc1)NC(=O)[C@H](Cc1ccccc1)NC(=O)[C@@H]1CCCN1C(=O)[C@@H](N)Cc1ccc(O)cc1`: the Ki amounted to 50.3 nM on Mu-type opioid receptor [1] and 247 nM in [3]. Also, in the data set on Mus musculus [2], the ED50 amounted to 3.2 nmol. In addition, the half-life came out at 0.767 h in data set [4] and 1.2 h in data set [5].

For the compound `CCCCCCCCC(N)C(=O)N[C@@H](Cc1c(C)cc(O)cc1C)C(=O)N1CCC[C@H]1C(=O)N[C@@H](Cc1c[nH]c2ccccc12)C(=O)N[C@@H](Cc1ccccc1)C(N)=O` (stereo partly drawn) (H-[ξGly(octyl)][Dmt]PWF-NH2), the ED50 in the data set with Rattus norvegicus was 1 µmol/kg. Further, at Mu-type opioid receptor [6], the EC50 was 1.3 nM.

Regarding `Cc1cc(O)cc(C)c1C[C@H](N)C(=O)N[C@@H]1CCCCNC(=O)C[C@@H](C(N)=O)NC(=O)[C@@H](Cc2ccc3ccccc3c2)NC(=O)[C@H](Cc2ccccc2)NC1=O` (H-[Dmt][dK]F[d2Nal]D-NH2; lactam 2-5), the inhibitory constant (Ki) in [7] was 1.02 nM. In addition, the ED50 in the data set on Mus musculus [8] was 0.08 µg.

In turn, `O=C1N[C@H](Cc2c[nH]c3ccccc23)C(=O)N[C@@H](Cc2ccccc2)C(=O)N2CCC[C@@H]2C(=O)N[C@H]1Cc1ccccc1` came in with a Ki in data set [9] of 4190 nM. Further, in [10], the antagonist equilibrium constant (Kb) is 20.2 nM. Further, the ED50 with Mus musculus [11] is 60 mg/kg.

In the case of `Cc1cc(O)cc(C)c1C[C@H](N)C(=O)N1Cc2ccccc2C[C@H]1C(=O)N[C@@H](Cc1ccccc1)C(=O)N[C@@H](Cc1ccccc1)C(N)=O` (H-[Dmt][Tic]FF-NH2), the half-life in [12] stood at 0.102 h.

For the compound `CCNC(=O)C[C@H](NC(=O)[C@H](Cc1ccccc1)NC(=O)[C@H](Cc1ccccc1)NC(=O)[C@@H](CCCCNC(=O)C[C@H](NC(=O)[C@H](Cc1ccccc1)NC(=O)[C@H](Cc1ccccc1)NC(=O)CNC(=O)[C@@H](N)Cc1ccc(O)cc1)C(N)=O)NC(=O)[C@@H](N)Cc1ccc(O)cc1)C(N)=O`, the IC50 in data set [13] is more than 1000 nM; in [14], 32 nM; against Mu-type opioid receptor [16] it was 26.2 nM. For the same compound, the EC50 at Mu-type opioid receptor [15] amounted to 5.01 nM. This compound came in with an ED50 with Mus musculus [8] of 1.96 nmol.

Take `Cc1cc(O)cc(C)c1C[C@H](N)C(=O)N[C@@H]1CCCCNC(=O)C[C@@H](C(N)=O)NC(=O)[C@@H](Cc2cccc3ccccc23)NC(=O)[C@H](Cc2ccccc2)NC1=O` (H-[Dmt][dK]F[d1Nal]D-NH2; lactam 2-5): in data set [7], the Ki amounted to 1.78 nM. In the data set on Mus musculus [8], the ED50 turned out to be 0.06 µg.

On to `CC[C@@H]1CN2CC[C@]3(O)c4c(cccc4OC)N[C@@H]3[C@@H]2C[C@@H]1/C(=C\OC)C(=O)OC`, for which the values for the EC50 (in data set [17]; at Mu-type opioid receptor [18]) were 1490 nM and 250 nM, respectively. Further, the ED50 in the data set on Mus musculus [19] came to 1.3 mg/kg; in data set [20], 0.35 mg/kg; in data set [23], 2.2 mg/kg; with Mus musculus [24] it was 0.3 mg/kg. Also, the Ki stood at 16 nM in data set [21], 6.4 nM at Mu-type opioid receptor [22] and 55 nM in [25].

In the case of `C[C@@H]1C(=O)N[C@@H](Cc2ccccc2)C(=O)N[C@H](Cc2c[nH]c3ccccc23)C(=O)N[C@@H](Cc2ccccc2)C(=O)N1C`, the inhibition constant (Ki) was 76.9 nM in data set [26] and 257 nM on Mu-type opioid receptor [28]. Moreover, the antagonist dissociation constant (Kb) in [10] worked out at 103 nM. Besides, at Mu-type opioid receptor [27], the IC50 is 321 nM. Moreover, the ED50 in the data set on Mus musculus [29] is 4.19 nmol.

`Cc1cc(O)cc(C)c1C[C@H](N)C(=O)N1Cc2ccccc2C[C@H]1C(=O)N[C@@H](Cc1ccccc1)[C@@H](O)C(=O)N[C@@H](Cc1ccccc1)C(N)=O`: the half-life in [12] worked out at 2 h.

For `C=C(C(N)=O)[C@@H](NC(=O)[C@H](Cc1c[nH]c2ccccc12)NC(=O)[C@@H](C)N(C)C(=O)[C@@H](N)Cc1c(C)cc(O)cc1C)c1ccco1`, the ED50 in the data set on Mus musculus [30] was determined as 0.382 mg/kg; in the data set on Mus musculus [32], 0.000695 µmol/kg. Moreover, the EC50 at Mu-type opioid receptor [31] was 0.0018 nM. For the same compound, the maximal effect (Emax) at Mu-type opioid receptor [33] stood at 98.3%. Besides, the half-life in [4] and in [35] was not below 5 h in each case. In addition, the values for the Ki (at Mu-type opioid receptor [34]; in [36]) were 0.011 nM and 33.3 nM, respectively.
